The results in this text go back to US11602546B2, “Combination inhibiting MEIS proteins” (YEDÍTEPE ÜNÍVERSÍTESÍ, priority 2016, dated 2023).

In data set [1] the test system is L929 murine fibroblastic cell line. The data set is described as follows: cytotoxic analyses, WST1, L929 cell line. Type of data set: cell-based. The following applies: L929 cells, 0, 1, 1 and 10 μM doses, 4 days. The procedure:
6—Cytotoxic Analyses of MEIS Inhibitors
L929 murine fibroblastic cell line was used for cytotoxic analyses of the MEIS inhibitors. The cells were seeded into a 96-well plate (Corning, 3799) at 2000 cells per well. The next day after seeding, the cells were treated by different doses by means of gradient concentration method using final concentrations of 0.1 μM, 1 μM, 10 μM with Meis1 inhibitor 1 (MEISi-1) and Meis1 inhibitor 2 (MEISi-2) mixed into each well in maximum 200 μl DMEM medium, and they were incubated in 5% CO2 and normal O2 level at 37° C. 4 days after the incubation, 10 μl WST1 cell proliferation solution (Boster, AR1159) was added, and after incubation of 4 hours, absorbance measurement was carried out at 450 nm by Thermo Lab system Multiskan Spektrum (ER-G).
In general terms: Tetrazolium assays rely on reduction of a dye to a coloured formazan, in cell work by metabolically active cells.

Data set [2] relates to Lin− cells obtained from the bone marrow / HSCs. The data set is described as follows: ex vivo mouse HSC proliferation (Lin− bone marrow cells, flow cytometry). Type of data set: cell-based. The following applies: dose dependent. The procedure: 4—Determining the effect of MEIS inhibitor on ex vivo HSC proliferation
Bone marrow isolation from mouse and HSC purification were performed. For this, following euthanasia of 8-12 week old mice with isoflurane, bone marrow cells were obtained from femur and tibia bones. Briefly, Lin−, Sca1+, c-Kit+, CD34low cells (long term HSCs) were obtained by being stained with cell line cocktail with biotin (anti-CD3, anti-CDS, anti-B220, anti-Mac-1, anti-Gr1, anti-Ter119; Stem Cell Technologies), and that was followed by streptavidin-PE/Cy5.5, anti-Sca-1-FITC, anti-KIT-APC, and anti-CD34-PE staining. HSC medium known as SCF medium was used in the culture of the isolated bone marrow cells. […]
HSC frequency and number: The Lin− cells obtained from the bone marrow were treated in the cell culture with MEIS inhibitors or DMSO for 10 days, and subsequently the number of hematopoietic cells (FIG. 4) and the percentage of HSCs (FIGS. 5 and 6) were determined. In order to determine the number of HSCs, the concerned surface antigens (Lin−, Sca1+, c-Kit+, CD34−) were stained with fluorochrome conjugated antibody as in the previous studies and then analyzed with flow cytometry (ER: C).
Background: Flow cytometry measures light scatter and fluorescence of single cells or particles in a stream.

Data set [3] deals with p21-Luc MEIS reporter (Meis1). The data set is described as follows: in vitro p21 luciferase reporter assay in COS cells. In kind it is cell-based. The following applies: COS cells, 0.1, 1 and 10 μM, 48 hours. On the procedure:
2—Determining Meis1 Inhibitors by In Vitro Luciferase Reporter Assay
MEIS inhibitors were tested by conducting the luciferase reporter assay. It was observed that MEIS protein activated the luciferase reporters containing increasing doses of p21 promoters. pGL2 vectors comprising p21 gene promoter, which is activated by Meis1, were used in the luciferase assays. Therefore, 0.8 μg p21-pGL2, 400 ng Meis1 expression vector pCMVSPORT6-Meis1 (Open BioSystems) and 0.2 μg p CMV-LacZ (internal control) vector were transfected together to the COS cells. 4 hours later, the cells were treated with prototype MEIS inhibitors (at 0.1, 1 and 10 μM concentrations). 6-well plates and lipofectamine were used for transfection. 48 hours later, the cells were lysed, samples were collected and luciferase activity was determined. Reporter system of Promega (Promega Dual-Glo® Luciferase Assay System) was used for this. Luciferase measurements were normalized according to β-gal measurements (measurements were made at 420 nm). Thermo Lab system Lumino scan Ascent device was used for the luciferase measurements. As a result of these experimental studies, the in silico study, which targeted MEIS homeodomain and was conducted in comparison to the other TALE homeodomain, enabled to determine MEIS-specific hits (Experimental Results (ER): ER-A).
(In general: A reporter such as luciferase makes a cellular process visible.)

For data set [4], the system named is human HSCs from bone marrow or umbilical cord blood. Kind of data set: human HSC expansion ex vivo. In kind it is cell-based. The following applies: human hematopoietic cell culture, in comparison to DMSO control group. The procedure: Human HSC Expansion: The cells obtained from bone marrow or umbilical cord blood were separated by Percoll and mononuclear cells were obtained. They were transferred to the tubes containing HSC medium. HSC medium known as SCF medium was used in the culture of the isolated bone marrow and umbilical cord blood HSCs. […] Following HSC purification, HSCs were seeded into a 96-well plate (Corning, 3799) at 200-300 HSCs per well; and upon adding maximum 200 μl of MEIS inhibitors mixed in SCF medium into each cell, they were incubated in 5% CO2 and normal O2 level at 37° C. for 7-10 days. Then, the number and percentage (frequency) of the HSCs and of the other hematopoietic progenitor cells were determined. The results were compared with the control group treated with DMSO (ER: E).

A short description of data set [5]: dose-dependent in vitro experiments (effective dose). Type of data set: cell-based. On the procedure: The effective dose was determined to be 1 μM by means of the dose-dependent in vitro experiments.
Data set [6] has as its system p21, Hif-1alpha (Hif-1α), Hif-2alpha (Hif-2α) genes in the Meis1 pathway. Kind of data set: real-time RT-PCR of Meis1 pathway genes in HSCs. In kind it is cell-based. Conditions: HSCs, 0.1, 1 and 10 μM, 3 days, vs DMSO. On the procedure: 3—Testing MEIS Inhibitors by Real-Time RT-PCR
HSCs were prepared for each inhibitor (3 replicates in 6 wells) and cell series containing DMSO were used as control group. For each potential small molecule, assays were conducted at concentrations of 0.1, 1 and 10 μM; and the cells were trypsinized and collected after 3 days and were stored in trizol until RNA isolation was carried out. RNA isolation was performed by using Qiagen in RNeasy mini kit and protocol. cDNA was synthesized from 2 μg RNA by using Invitrogen in Superscript II RT system. Assays were conducted in BioRad CFX 96 Real Time PCR device by using SyberGreen (AppliedBiosystems). GAPDH was used as the control gene and was used for normalizing gene expression by ddCT method. Levels of the p21, Hif-1alpha (Hif-1α), Hif-2alpha (Hif-2α) gene expressions, which are known to be activated by Meis1, were determined and were controlled by DMSO control group (FIG. 3) (ER: B).

In data set [7] the test system is HSCs in mouse bone marrow and blood. Kind of data set: in vivo proliferation of HSCs with MEIS inhibitors. Conditions: 0.5 mg/kg to 10 mg/kg, 10 days after administration. The procedure:
5—In Vivo Proliferation of HSCs with MEIS Inhibitors
As an alternative to ex vivo proliferation of HSCs by using small molecules, it was shown that application of MEIS inhibitors directly for in vivo HSC proliferation is also possible. The injected MEIS inhibitors were administered intraperitoneally in the range of 0.5 mg/kg to 10 mg/kg. In order to ensure effective incubation, the inhibitors were administered to the mice in 3 different doses; and 10 days after administration, the amount of the HSCs obtained from the bone marrow of the mice was determined (FIG. 9) (ER: F).

As to `Cc1cccc(NC(=O)c2ccc(OCC(=O)NCc3ccccc3)cc2)c1C` [MEISi-1, 4-[2-(benzylamino)-2-oxoethoxy]-N-(2,3-dimethylphenyl) benzamide], the cytotoxicity entry in data set [1] is “not cytotoxic”. Also, the “increase in the number of HSCs” value in data set [2] is listed as “up to 10 times”. In addition, in data set [3], the “inhibition of p21-Luc MEIS reporter (luciferase activity)” value is recorded as “inhibit p21-Luc MEIS reporter in a dose-dependent manner”. In data set [4], the “ALDHBr HSC number increase” value came out at 2 times, the “CD34+ HSC number increase” value is given as 2 times, the “CD34+CD133 HSC number increase” value stood at 2 times and the “CD133+ HSC number increase” value is 2 times. In data set [5], the effective dose was 1 µM. For the same compound, in data set [6], the “expression of Hif-1alpha (Hif-1α) gene” value is recorded as “reduce expression”, the “expression of Hif-2alpha (Hif-2α) gene” value is on record as “reduce expression” and the “expression of p21 gene” value is “reduce expression”. In addition, in data set [7], the “HSC number in mouse bone marrow (LSKCD34low cells)” value is on record as “successfully increased HSC number” and the “HSC number in the blood (LSKCD150+CD48− cells)” value is recorded as “successfully increased HSC number”.

On to `O=C1C=Cc2ccccc2/C1=C/NNC(=O)c1ccc(O)cc1` [MEISi-2, 4-hydroxy-N′-[(Z)-(2-oxonaphthalen-1-ylidene)methyl] benzohydrazide], for which, in data set [1], the cytotoxicity result is listed as “not cytotoxic”. For the same compound, the “increase in the number of HSCs” value in data set [2] is listed as “up to 3 times”. Besides, the “inhibition of p21-Luc MEIS reporter (luciferase activity)” value in data set [3] is “inhibit p21-Luc MEIS reporter in a dose-dependent manner”. Moreover, in data set [4], the “ALDHBr HSC number increase” value is listed as 2 times, the “CD34+ HSC number increase” value came out at 2 times, the “CD34+CD133 HSC number increase” value is 2 times and the “CD133+ HSC number increase” value was found to be 2 times. This compound also registered an effective dose in data set [5] of 1 µM. For the same compound, in data set [6], the “expression of Hif-1alpha (Hif-1α) gene” value is “reduce expression”, the “expression of Hif-2alpha (Hif-2α) gene” value is listed as “reduce expression” and the “expression of p21 gene” value is recorded as “reduce expression”. In data set [7], the “HSC number in mouse bone marrow (LSKCD34low cells)” value is “successfully increased HSC number” and the “HSC number in the blood (LSKCD150+CD48− cells)” value is “successfully increased HSC number”.
